ChEMBL document CHEMBL3046363, “Synthesis, fungicidal, and insecticidal activities of beta-Methoxyacrylate-containing N-acetyl pyrazoline derivatives” (J Agric Food Chem, 2008)
Activity calls are given as the source filed them. The rule behind the calls is not given here.

Assays:
[1] = test system: Podosphaera fuliginea; test: In vivo fungicidal activity against Podosphaera fuliginea infected cucumber plants assessed as inhibition of disease symptoms at 200 ug/ml treated one day prior to fungal spore inoculation measured after one week; format: functional
[2] = test system: Pseudoperonospora cubensis; test: In vivo fungicidal activity against Pseudoperonospora cubensis infected in cucumber plants assessed as inhibition of disease symptoms at 200 ug/ml treated one day prior to fungal spore inoculation measured after one week; format: functional
[3] = test system: Botrytis cinerea; test: In vivo fungicidal activity against Botryotinia fuckeliana infected in cucumber plants assessed as inhibition of disease symptoms at 200 ug/ml treated one day prior to fungal spore inoculation measured after one week; format: functional, organism-based
[4] = test system: Rhizoctonia solani; test: In vivo fungicidal activity against Rhizoctonia solani infected in cucumber plants assessed as inhibition of disease symptoms at 200 ug/ml treated one day prior to fungal spore inoculation measured after one week; format: functional, organism-based
[5] = test system: Mythimna separata; test: In vivo insecticidal activity against Mythimna separata (Oriental armyworm) assessed as mortality at 500 ug/ml after 72 hr; format: functional
[6] = test system: Tetranychus cinnabarinus; test: In vivo insecticidal activity against Tetranychus cinnabarinus (carmine spider mite) assessed as mortality at 500 ug/ml after 72 hr; format: functional
[7] = test system: Aphis medicaginis; test: In vivo insecticidal activity against Aphis medicaginis assessed as mortality at 1 g/l after 72 hr; format: functional, organism-based
[8] = test system: Nilaparvata lugens; test: In vivo insecticidal activity against fifth instar larval stage of Nilaparvata lugens (brown planthopper) in […] rice seedlings assessed as mortality at 1 g/l treated for 5 secs before larval infestation measured after 72 hr; format: functional, organism-based

CO/C=C(/C(=O)OC)c1ccccc1COc1ccccc1C1=NN(C(C)=O)C(c2ccc(C)c(C)c2)C1 (centres undefined)
inhibition in vivo at 200 µg/mL [1]: < 60%
inhibition in vivo at 200 µg/mL [2]: < 60%
inhibition [3]: inactive
inhibition [4]: inactive

CO/C=C(/C(=O)OC)c1ccccc1COc1ccc(C2=NN(C(C)=O)C(c3ccc(Cl)cc3Cl)C2)cc1 (centres undefined)
inhibition in vivo at 200 µg/mL [1]: < 60%
inhibition in vivo at 200 µg/mL [2]: < 60%
inhibition [3]: inactive
inhibition [4]: inactive

CO/C=C(/C(=O)OC)c1ccccc1COc1ccc(C2=NN(C(C)=O)C(c3ccc4c(c3)OCO4)C2)cc1 (centres undefined)
inhibition in vivo at 200 µg/mL [1]: < 60%
inhibition in vivo at 200 µg/mL [2]: 100%
inhibition [3]: inactive
inhibition [4]: inactive

CO/C=C(/C(=O)OC)c1ccccc1COc1ccccc1C1=NN(C(C)=O)C(c2ccc(Cl)c(Cl)c2)C1 (centres undefined)
inhibition in vivo at 200 µg/mL [1]: < 60%
inhibition in vivo at 200 µg/mL [2]: < 60%
inhibition [3]: inactive
inhibition [4]: inactive

CO/C=C(/C(=O)OC)c1ccccc1COc1cccc(C2=NN(C(C)=O)C(c3ccccc3Br)C2)c1 (centres undefined)
inhibition in vivo at 200 µg/mL [1]: < 60%
inhibition in vivo at 200 µg/mL [2]: 100%
inhibition [3]: inactive
inhibition [4]: inactive

CO/C=C(/C(=O)OC)c1ccccc1COc1cccc(C2=NN(C(C)=O)C(c3ccccc3F)C2)c1 (centres undefined)
inhibition in vivo at 200 µg/mL [1]: < 60%
inhibition in vivo at 200 µg/mL [2]: ≥ 90%
inhibition [3]: inactive
inhibition [4]: inactive

CO/C=C(/C(=O)OC)c1ccccc1COc1ccccc1C1=NN(C(C)=O)C(c2ccc(Br)cc2)C1 (centres undefined)
inhibition in vivo at 200 µg/mL [1]: < 60%
inhibition in vivo at 200 µg/mL [2]: < 60%
inhibition [3]: inactive
inhibition [4]: inactive

CO/C=C(/C(=O)OC)c1ccccc1COc1ccc(C2=NN(C(C)=O)C(c3ccc(C(C)(C)C)cc3)C2)cc1 (centres undefined)
inhibition in vivo at 200 µg/mL [1]: < 60%
inhibition in vivo at 200 µg/mL [2]: < 60%
inhibition [3]: inactive
inhibition [4]: inactive

CO/C=C(/C(=O)OC)c1ccccc1COc1cccc(C2=NN(C(C)=O)C(c3cc(OC)c(OC)c(OC)c3)C2)c1 (centres undefined)
inhibition in vivo at 200 µg/mL [1]: < 60%
inhibition in vivo at 200 µg/mL [2]: < 60%
inhibition [3]: inactive
inhibition [4]: inactive

CO/C=C(/C(=O)OC)c1ccccc1COc1ccc(C2=NN(C(C)=O)C(c3cccs3)C2)cc1 (centres undefined)
inhibition in vivo at 200 µg/mL [1]: ≥ 60%
inhibition in vivo at 200 µg/mL [2]: ≥ 70%
inhibition [3]: inactive
inhibition [4]: inactive

CO/C=C(/C(=O)OC)c1ccccc1COc1ccc(C2=NN(C(C)=O)C(c3ccc(OC)cc3)C2)cc1 (centres undefined)
inhibition in vivo at 200 µg/mL [1]: < 60%
inhibition in vivo at 200 µg/mL [2]: < 60%
inhibition [3]: inactive
inhibition [4]: inactive

CO/C=C(/C(=O)OC)c1ccccc1COc1cccc(C2=NN(C(C)=O)C(c3ccc(C(C)(C)C)cc3)C2)c1 (centres undefined)
mortality at 500 µg/mL [5]: 100%
mortality at 500 µg/mL [6]: ≥ 90%
inhibition in vivo at 200 µg/mL [1]: < 60%
mortality [7]: inactive
inhibition in vivo at 200 µg/mL [2]: ≥ 80%
mortality [8]: inactive
inhibition [3]: inactive
inhibition [4]: inactive

CO/C=C(/C(=O)OC)c1ccccc1COc1ccc(C2=NN(C(C)=O)C(c3ccc(Br)cc3)C2)cc1 (centres undefined)
inhibition in vivo at 200 µg/mL [1]: < 60%
inhibition in vivo at 200 µg/mL [2]: < 60%
inhibition [3]: inactive
inhibition [4]: inactive

CO/C=C(/C(=O)OC)c1ccccc1COc1ccccc1C1=NN(C(C)=O)C(c2ccc(OC)c(OC)c2)C1 (centres undefined)
inhibition in vivo at 200 µg/mL [1]: < 60%
inhibition in vivo at 200 µg/mL [2]: < 60%
inhibition [3]: inactive
inhibition [4]: inactive

CCOc1ccc(C2CC(c3ccc(OCc4ccccc4/C(=C\OC)C(=O)OC)cc3)=NN2C(C)=O)cc1 (centres undefined)
inhibition in vivo at 200 µg/mL [1]: < 60%
inhibition in vivo at 200 µg/mL [2]: < 60%
inhibition [3]: inactive
inhibition [4]: inactive

CO/C=C(/C(=O)OC)c1ccccc1COc1cccc(C2=NN(C(C)=O)C(c3ccc(Cl)cc3)C2)c1 (centres undefined)
mortality at 500 µg/mL [5]: 100%
mortality at 500 µg/mL [6]: < 60%
inhibition in vivo at 200 µg/mL [1]: < 60%
mortality [7]: inactive
inhibition in vivo at 200 µg/mL [2]: ≥ 60%
mortality [8]: inactive
inhibition [3]: inactive
inhibition [4]: inactive

CCc1ccc(C2CC(c3ccccc3OCc3ccccc3/C(=C\OC)C(=O)OC)=NN2C(C)=O)cc1 (centres undefined)
mortality at 500 µg/mL [5]: 100%
mortality at 500 µg/mL [6]: < 60%
inhibition in vivo at 200 µg/mL [1]: < 60%
mortality [7]: inactive
inhibition in vivo at 200 µg/mL [2]: 100%
mortality [8]: inactive
inhibition [3]: inactive
inhibition [4]: inactive

CO/C=C(/C(=O)OC)c1ccccc1COc1ccc(C2=NN(C(C)=O)C(c3cccc(OC)c3)C2)cc1 (centres undefined)
inhibition in vivo at 200 µg/mL [1]: < 60%
inhibition in vivo at 200 µg/mL [2]: ≥ 70%
inhibition [3]: inactive
inhibition [4]: inactive
